Measurements published in PMC12177060, “Blocking XIAP:CASP7-p19 selectively induces apoptosis of CASP3/DR malignancies by a novel reversible small molecule” (Cell Death & Disease, 2025).

Biological target: T1, CASP7 (Homo sapiens, UniProt P55210)
T1 construct: human CASP7 cDNA in pET28a, C-terminal 6-His tag, E. coli BL21(DE3), Ni-NTA purified; active processed form, MW 70 kDa hetero-tetramer (p19/p12)
T1 sequence (P55210 24-198): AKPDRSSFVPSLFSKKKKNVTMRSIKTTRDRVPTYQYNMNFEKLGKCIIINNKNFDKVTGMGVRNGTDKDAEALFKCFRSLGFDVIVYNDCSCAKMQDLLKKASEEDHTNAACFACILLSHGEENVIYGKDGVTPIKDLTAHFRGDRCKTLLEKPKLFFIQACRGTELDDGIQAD
T1 sequence (P55210 207-303): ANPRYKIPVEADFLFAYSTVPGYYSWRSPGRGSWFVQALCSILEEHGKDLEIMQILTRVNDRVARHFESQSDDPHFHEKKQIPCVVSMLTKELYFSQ
Experiment: SPR (BIAcore), His-tagged CASP7 immobilised on NiNTA chip
Assay type: binding
Details: allosteric site near Cys246/Asp93 (proposed), reversible; 2.5, 5 or 10 μM injected

Structure (SMILES): COc1cc2c(-c3ccc(O)cc3)nc3c(c(C)nn3-c3ccccc3)c2cc1OC [compound 643943, 643943]
- Kd: 3.1 µM
